Here are results for 17 compounds from PubChem BioAssay (NCI).

What all share (test): NCI tumour cell line growth inhibition, 48 h
Assay [1] deals with HS 578T breast.
Assay [2] deals with NCI/ADR-RES ovarian.
For assay [3], the system named is MCF7 breast.
Assay [4] deals with T-47D breast.

Where “and” joins values, the source holds several entries; their conditions need not be identical. Equal entries are not always repeated.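 Interpolation was linear, between the two tested concentrations surrounding the appropriate level; five concentrations were tested over 48 hours in 96-well plates. GI50 is the concentration that inhibits growth by half. TGI denotes the concentration required for complete inhibition of growth.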

Turning to `Nc1c(C(=O)Nc2ccccn2)sc2nc3c(cc12)C(O)CCC3` (stereo not given), the GI50 in assay [1] is 2.07 µM; in assay [2] it was 1.83 µM; in assay [3], 1.02 µM. The TGI in assay [1], in assay [2] and in assay [3] was greater than 50 µM each time.

On to `CS(=O)(=O)Nc1cc(-c2ccc3ncnc(Nc4ccc(F)c(Cl)c4)c3c2)cnc1Cl`, for which the GI50 in assay [1] is 0.182 µM and 0.19 µM; in assay [4] it was 0.0323 µM and 0.0901 µM; in assay [2], 2.06 µM and 2.07 µM; in assay [3] it was 0.216 µM and 0.227 µM. For the same compound, the TGI was 2.69 µM in assay [1]; 0.437 µM and 0.892 µM in assay [4]; 30.5 µM and 20 µM in assay [2]; 11.4 µM and 11.8 µM in assay [3].

Turning to `COc1cc(Cl)cc(-c2nn(-c3cccc(NC(=O)Nc4cccc(C(F)(F)F)c4)c3)cc2-c2ccncc2)c1`, the GI50 was 4.06 µM in assay [1], 1.23 µM in assay [4], 1.65 µM in assay [2] and 1.48 µM in assay [3]. Also, the TGI was greater than 100 µM in assay [1], 6.99 µM in assay [4], 7.81 µM in assay [2] and 7.57 µM in assay [3].

`COc1cccc(/C=C/c2nc3c(cnn3-c3ccccc3)c(=O)[nH]2)c1`: the GI50 in assay [1] was 13.7 µM; in assay [2] it was greater than 33.7 µM; in assay [3], 0.467 µM. The TGI in assay [1], in assay [4], in assay [2] and in assay [3] was greater than 100 µM each time.

On to `O=C(NCCc1ccccc1)Nc1ccc2cc3ccc(NC(=O)NCCc4ccccc4)cc3nc2c1`, for which the GI50 was 0.276 µM in assay [1], 0.983 µM in assay [4], greater than 100 µM in assay [2] and 0.29 µM in assay [3]. The TGI in assay [1] is 0.933 µM; in assay [4], 2.31 µM; in assay [2] it was greater than 100 µM; in assay [3], 1.2 µM.

As for `CNC(=O)c1cc(Oc2cccc3nc(NC(=O)Nc4cc(C(F)(F)F)cc(C(F)(F)F)c4)ccc23)ccn1`, the GI50 in assay [1] was 2.57 µM; in assay [4], 4.13 µM; in assay [2], 5.62 µM; in assay [3] it was 7.43 µM. Moreover, the TGI in assay [1] was 13.5 µM; in assay [4], 31.1 µM; in assay [2] it was 52 µM; in assay [3] it was 66.6 µM.

For `N#Cc1ccc(-c2c(-c3ncn[nH]3)sc(N3CCOCC3)c2C#N)c(F)c1`, the GI50 was 0.381 µM in assay [1], 0.0391 µM in assay [4], 3.19 µM in assay [2] and 0.135 µM in assay [3]. In addition, the TGI in assay [1] was 4.85 µM; in assay [4], 0.522 µM; in assay [2], greater than 100 µM; in assay [3], 17.7 µM.

On to `CCCOc1cc2ccccc2cc1C(=O)Nc1nc(NC)c2c(ccc3nccc32)[nH]1`, for which the GI50 was 1.42 µM in assay [1], 0.55 µM in assay [2] and 0.263 µM in assay [3]. Further, the TGI came out at 3.85 µM in assay [1], 2.48 µM in assay [2] and 1.31 µM in assay [3].

`Nc1ccccc1C#C/C=C\C#CC#C/C=C\C#Cc1ccccc1N`: the GI50 in assay [1] is 12.4 µM; in assay [4] it was 6.47 µM; in assay [2] it was 2.85 µM; in assay [3], 4.6 µM. Besides, the TGI in assay [1] was 56.7 µM; in assay [4], greater than 100 µM; in assay [2], 16.3 µM; in assay [3], greater than 100 µM.

In the case of `NCCCOc1cc2ccccc2cc1C(=O)Nc1ccc(Cl)cc1OC(=O)c1cc2ccccc2cc1OCCCN`, the GI50 in assay [4] was 0.282 µM; in assay [2] it was 1.17 µM; in assay [3], 0.173 µM. Moreover, the TGI in assay [4] is 1.02 µM; in assay [2], 2.79 µM; in assay [3], 0.332 µM.

Turning to `O=C(CSCC(=O)N/N=C/c1ccccc1O)N/N=C\c1ccccc1O`, the GI50 was 26.7 µM in assay [1], 2.36 µM in assay [4], 2.87 µM in assay [2] and 5.85 µM in assay [3]. For the same compound, the TGI in assay [1], in assay [4], in assay [2] and in assay [3] was greater than 100 µM in each case.

With `Cc1ccc(Nc2cc(Cl)c([N+](=O)[O-])cc2[N+](=O)[O-])cc1`, the GI50 in assay [1] was 7.63 µM; in assay [4], 3.28 µM; in assay [2], 3.83 µM; in assay [3] it was 2.7 µM. The TGI in assay [1] is greater than 24.7 µM; in assay [4], 9.51 µM; in assay [2], 24 µM; in assay [3], 7.68 µM.

Turning to `C/C=C/C/C=C/[C@H](C)C[C@H](O)[C@@H]1C[C@@H]2O[C@H]2/C=C/[C@@H]2OC(C)(C)O[C@H]2/C=C/C[C@H](C)CC(=O)O1`, the GI50 was 5.22 µM in assay [1], 2.18 µM in assay [4], 3.28 µM in assay [2] and 25.5 µM in assay [3]. Further, the TGI is greater than 100 µM in assay [1], 8.53 µM in assay [4], greater than 100 µM in assay [2] and greater than 100 µM in assay [3].

Take `C=C1c2ccccc2C(=O)c2c1c1c(C(=O)OC)c(OC(=O)OCc3ccc([N+](=O)[O-])cc3)ccc1n2Cc1ccccc1`: the GI50 in assay [1] was 4.69 µM; in assay [2] it was 3.46 µM; in assay [3] it was 13.4 µM. The TGI in assay [1] is greater than 100 µM; in assay [2], 15 µM; in assay [3], 43.2 µM.

Take `Cc1cc(C(=O)Nc2n[nH]c3ccccc23)n[nH]1`: the GI50 in assay [1], in assay [4], in assay [2] and in assay [3] was greater than 100 µM each time. Further, the TGI in assay [1], in assay [4], in assay [2] and in assay [3] was greater than 100 µM each time.

With `O=C(O)c1cc2ccccc2c2c3c(ccc12)OCO3`, the GI50 in assay [1] was 129 µM; in assay [4], 209 µM; in assay [2], 210 µM; in assay [3], 227 µM. The TGI in assay [1] turned out to be 522 µM; in assay [4], 750 µM; in assay [2], 754 µM; in assay [3], 895 µM.

On to `CC(C)(C)c1cc(C(=O)Nc2ccc(C(=O)NCCN)cc2)cc(C(C)(C)C)c1`, for which the GI50 was 2.2 µM in assay [1], 2.07 µM in assay [4] and 14.7 µM in assay [2]. Further, the figures for the TGI in assay [1], in assay [4] and in assay [2] were 5.96 µM, 5.58 µM and 35 µM, respectively.
